Results from patent publication US7105534B2, “Imidazo[1,2-α]pyridine ether compounds as ion channel modulators” (Cardiome Pharma Corp., priority 2000, dated 2006).
Structures can show the parent of a compound that is named as a salt.

Assays:
Kv1.5 = biological target: T1, Kv1.5 (Homo sapiens, UniProt P22460); assay: Patch-clamp inhibition of cloned ion channel current in transfected HEK cells: Kv1.5; format: cell-based; conditions: steady-state current, -80 mV to +60 mV
T1 construct: expressed in transfected cells; host or cells: HEK cells, transient transfection, vector pCDNA3
T1 sequence (P22460 whole entry): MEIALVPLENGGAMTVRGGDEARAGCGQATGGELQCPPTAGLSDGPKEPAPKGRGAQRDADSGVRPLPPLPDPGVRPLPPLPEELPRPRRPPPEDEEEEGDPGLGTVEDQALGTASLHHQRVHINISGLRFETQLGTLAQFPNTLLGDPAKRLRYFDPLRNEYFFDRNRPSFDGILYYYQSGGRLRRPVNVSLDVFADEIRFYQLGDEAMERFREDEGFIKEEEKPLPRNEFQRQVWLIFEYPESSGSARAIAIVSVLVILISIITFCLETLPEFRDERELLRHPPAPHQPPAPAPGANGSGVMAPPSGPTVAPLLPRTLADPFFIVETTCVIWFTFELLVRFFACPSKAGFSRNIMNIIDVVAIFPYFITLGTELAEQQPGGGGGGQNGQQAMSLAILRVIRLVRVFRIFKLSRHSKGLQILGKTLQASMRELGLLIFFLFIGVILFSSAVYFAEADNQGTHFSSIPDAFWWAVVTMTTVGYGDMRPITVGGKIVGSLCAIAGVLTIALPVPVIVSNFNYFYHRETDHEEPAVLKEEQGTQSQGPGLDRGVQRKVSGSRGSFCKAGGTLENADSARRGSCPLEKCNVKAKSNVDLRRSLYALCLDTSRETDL
Procedure: (§1) The relevant cloned ion channels (e.g. cardiac hH1, Kv1.4, Kv1.5, Kv4.2, Kv2.1, HERG etc.) are studied by transient transfection into HEK cells using the mammalian expression vector pCDNA3. Transfections for each channel type are carried out separately to allow individual study of the ion channel of interest. Cells expressing channel protein are detected by cotransfecting cells with the vector pHook-1 (Invitrogen, San Diego, Calif., USA). […] Equal concentrations of individual channel and pHook DNA are incubated with 10× concentration of lipofectAce in Modified Eagle's Medium (MEM, Canadian Life Technologies) and incubated with parent HEK cells plated on 25 mm culture dishes. After 3–4 hours the solution is replaced with a standard culture medium plus 20% fetal bovine serum and 1% antimycotic. Transfected cells are maintained at 37C in an air/5% CO2 incubator in 25 mm Petri dishes plated on glass coverslips for 24–48 hours to allow channel expression to occur. 20 min prior to experiments, cells are treated with beads coated with phOX. After 15 min, excess beads are […] off with cell culture medium and cells which had beads stuck to them are used for electrophysiological tests.
(§2) For whole-cell recording the control pipette filling solution contained (in mM): KCl, 130; EGTA, 5; MgCl2, 1; HEPES, 10; Na2ATP, 4; GTP, 0.1; and is adjusted to pH 7.2 with KOH. The control bath solution contained (in mM): NaCl, 135; KCI, 5; sodium acetate, 2.8; MgCl2, 1; HEPES, 10; CaCl2, 1; and is adjusted to pH 7.4 with NaOH. The test ion channel modulating compound is dissolved to 10 mM stock solutions in water and used at concentrations between 0.5 and 100 μM.
(§3) Coverslips containing cells are removed from the incubator before experiments and placed in a superfusion chamber (volume 250 μl) containing the control bath solution at 22C to 23C. All recordings are made via the variations of the patch-clamp technique, using an Axopatch 200A amplifier (Axon Instruments, CA). Patch electrodes are pulled from thin-walled borosilicate glass (World Precision Instruments; FL) on a horizontal micropipette puller, fire-polished, and filled with appropriate solutions. Electrodes had resistances of […] when filled with control filling solution. Analog capacity compensation is used in all whole cell measurements. In some experiments, leak subtraction is applied to data. Membrane potentials have not been corrected for any junctional potentials that arose between the pipette and bath solution. Data are filtered at 5 to 10 kHz before digitization and stored on a microcomputer for later analysis using the pClamp6 software (Axon Instruments, Foster City, Calif.). Due to the high level of expression of channel cDNA's in HEK cells, there is no need for signal averaging. The average cell capacitance is quite small, and the absence of ionic current at negative membrane potentials allowed faithful leak subtraction of data.
(§4) The concentration-response curves for changes in peak and steady-state current produced by the test compound are computer-fitted to the Hill equation: f=1−1/[1+([…])^n] [1]
(§5) where f is the fractional current (f=Idrug/Icontrol) at drug concentration [D]; IC50 is the concentration producing half-maximal inhibition and n is the Hill coefficient.
(§6) Compounds of the present invention may be evaluated by this method. […] Block is determined from the decrease in peak hH1 Na^+ current, or in steady-state Kv1.5 and integrated Kv4.2 current in the presence of drug. To record Na^+ current, cells are depolarized from the holding potential of −100 mV to a voltage of −30 mV for 10 ms to fully open and inactivate the channel. To record Kv1.5 and Kv4.2 current, cells are depolarized from the holding potential of −80 mV to a voltage of +60 mV for 200 ms to fully open the channel. Currents are recorded in the steady-state at a range of drug concentrations during stimulation every 4 s. […]

HERG = biological target: T2, HERG (Homo sapiens, UniProt Q12809); assay: Patch-clamp inhibition of cloned ion channel current in transfected HEK cells: HERG; format: cell-based; conditions: whole-cell patch clamp
T2 construct: expressed in transfected cells; host or cells: HEK cells, transient transfection, vector pCDNA3
T2 sequence (Q12809 whole entry): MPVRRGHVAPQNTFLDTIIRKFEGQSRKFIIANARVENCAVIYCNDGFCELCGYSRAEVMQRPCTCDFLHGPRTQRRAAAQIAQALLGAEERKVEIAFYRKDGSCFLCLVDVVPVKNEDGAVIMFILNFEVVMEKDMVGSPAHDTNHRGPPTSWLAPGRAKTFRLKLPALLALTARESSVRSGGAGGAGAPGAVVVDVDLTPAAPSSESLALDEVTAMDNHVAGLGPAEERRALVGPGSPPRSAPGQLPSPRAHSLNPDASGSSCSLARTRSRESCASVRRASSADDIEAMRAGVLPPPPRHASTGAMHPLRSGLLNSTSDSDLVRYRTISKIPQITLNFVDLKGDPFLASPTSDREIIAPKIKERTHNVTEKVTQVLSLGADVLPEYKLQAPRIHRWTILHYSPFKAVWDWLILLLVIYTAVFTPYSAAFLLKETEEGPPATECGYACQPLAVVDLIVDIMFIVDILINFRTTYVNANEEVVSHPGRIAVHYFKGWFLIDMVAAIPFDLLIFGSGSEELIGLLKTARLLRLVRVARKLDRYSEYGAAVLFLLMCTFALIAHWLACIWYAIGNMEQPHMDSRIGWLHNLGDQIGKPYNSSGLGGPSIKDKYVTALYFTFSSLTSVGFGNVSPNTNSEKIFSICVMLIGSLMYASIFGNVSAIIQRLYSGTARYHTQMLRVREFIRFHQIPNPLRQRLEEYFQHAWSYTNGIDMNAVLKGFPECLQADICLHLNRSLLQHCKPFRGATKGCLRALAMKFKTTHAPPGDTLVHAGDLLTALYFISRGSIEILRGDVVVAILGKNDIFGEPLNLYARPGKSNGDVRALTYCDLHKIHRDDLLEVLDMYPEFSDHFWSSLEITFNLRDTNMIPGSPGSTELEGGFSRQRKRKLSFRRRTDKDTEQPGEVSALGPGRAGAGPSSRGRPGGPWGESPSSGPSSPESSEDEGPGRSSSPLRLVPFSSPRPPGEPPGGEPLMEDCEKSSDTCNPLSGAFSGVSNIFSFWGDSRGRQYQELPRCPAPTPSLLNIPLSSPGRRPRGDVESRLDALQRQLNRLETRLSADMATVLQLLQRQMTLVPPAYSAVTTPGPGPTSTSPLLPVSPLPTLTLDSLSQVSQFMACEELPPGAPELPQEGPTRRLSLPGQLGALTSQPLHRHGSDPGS
Procedure: as §1, §2, §3, §4, §5, §6

Row | IC50 (Kv1.5) | Structure (SMILES) | IC50 (HERG)
1 | 700 nM | Cc1cn2ccc(C)c(OCCCc3ccc(Cl)cc3Cl)c2n1 [Compound 14, 8-[3-(2,4-DICHLOROPHENYL)PROPOXY]-2,7-DIMETHYLIMIDAZO[1,2-α]PYRIDINE MONOHYDROCHLORIDE] | 
2 | 4000 nM | Cc1cn2ccc(C)c(OCC3(c4ccccc4)CC3)c2n1 [Compound 17, 2,7-DIMETHYL-8-[(1-PHENYL-CYCLOPROPYL)METHOXY]IMIDAZO[1,2-α]PYRIDINE MONOHYDROCHLORIDE] | 1000 nM
3 | 3000 nM | Cc1cn2ccc(C)c(OCCCc3ccccc3)c2n1 [Compound 18, 2,7-DIMETHYL-8-[3-PHENYLPROPRXY]IMIDAZO[1,2-α]PYRIDINE MONOHYDROCHLORIDE] | 1000 nM
4 | 200 nM | CC(C)c1cn2cccc(OCCCc3ccc(Cl)cc3Cl)c2n1 [Compound 20, 8-[3-(2,4-DICHLOROPHENYL)PROPOXY]-2-ISOPROPYLIMIDAZO[1,2-α]PYRIDINE MONOHYDROCHLORIDE] | 100 nM
5 | 2000 nM | Cc1nc2c(OCCCc3ccc(Cl)cc3Cl)cccn2c1CO [Compound 21, {8-[3-(2,4-DICHLOROPHENYL)PROPOXY]-2-METHYLIMIDAZO[1,2-α]PYRIDIN-3-yl}METHANOL MMONOHYDROCHLORIDE] | 60 nM
6 | 400 nM | Cc1nc2c(OCCCc3ccc(Cl)cc3Cl)cccn2c1Cl [Compound 22, 3-CHLORO-8-[3-(2,4-DICHLOROPHENYL)PROPOXY]-2-METHYLI[1,2-α]PYRIDINE MMONOHYDROCHLORIDE] | 1000 nM
7 | 3000 nM | FC(F)(F)c1cn2cccc(OCC3(c4ccccc4)CC3)c2n1 [Compound 23, 8-[(1-PHENYLCYCLOPROPYL)METHOXY]-2-(TRIFLUOROMETHYL)IMIDAZO[1,2-α]PYRIDINE MMONOHYDROCHLORIDE] | 9000 nM
8 | 800 nM | Cc1nc2c(OCCCc3ccc(Cl)cc3Cl)cccn2c1N [Compound 26, 3-AMINO-8-[3-(2,4-DICHLOROPHENYL)PROPOXY]-2-METHYLIMIDAZO[1,2-α]PYRIDINE DIHYDROCHLORIDE] | 200 nM
9 | 600 nM | Clc1ccc(CCCOc2cccn3c4c(nc23)CCCC4)c(Cl)c1 [Compound 27, 4-[3-(2,4-DICHLOROPHENYL)PROPOXY]-6,7,8,9-TETRAHYDROBENZO[4,5]IMIDAZO-[1,2-α]PYRDINE MMONOHYDROCHLORIDE] | 100 nM
10 | 800 nM | Cc1nc2c(OCC3(c4ccccc4)CC3)cccn2c1Br [Compound 28, 3-BROMO-2-METHYL-8-[(1-PHENYL-CYCLOPROPYL)METHOXY]IMIDAZO[1,2-α]PYRIDINE MMONOHYDROCHLORIDE] | 2000 nM
11 | 700 nM | Clc1ccc(CCCOc2cccn3c4c(nc23)CCC4)c(Cl)c1 [Compound 29, 7-[3-(2,4-DICHLOROPHENYL)PROPOXY]-2,3-DIHYDRO-1H-3b,8-DIAZOCYCLOPENTA[a]indene MMONOHYDROCHLORIDE] | 80 nM
12 | 1000 nM | CCOC(=O)c1c(C)nc2c(OCC3(c4ccccc4)CC3)cccn12 [Compound 30, ETHYL 2-METHYL-8-[(1-PHENYL-CYCLOPROPYL)METHOXY]IMIDAZO[1,2-α]PYRIDINE-3-CARBOXYLATE MMONOHYDROCHLORIDE] | 2000 nM

Row | Structure (SMILES) | IC50 (Kv1.5) | IC50 (HERG)
13 | Cc1nc2c(OCCCc3ccc(Cl)cc3Cl)cccn2c1Br [Compound 19, 3-BROMO-8-[3-(2,4-DICHLOROPHENYL)PROPOXY]-2-METHYLIMIDAZO[1,2-α]PYRIDINE MONOHYDROCHLORIDE] | 300 nM | 400 nM
14 | CNCc1c(C)nc2c(OCCCc3ccc(Cl)cc3Cl)cccn12 [Compound 24, 8-[3-(2,4-DICHLOROPHENYL)PROPOXY]-3-[(METHYLAMINO)METHYL]-2-METHYL-IMIDAZO[1,2-α]PYRIDINE DIHYDROCHLORIDE] | 2000 nM | 200 nM
15 | Cc1nc2c(OCCCc3ccc(Cl)cc3Cl)cccn2c1CN(C)C [Compound 25, 8-[3-(2,4-DICHLOROPHENYL)PROPOXY]-3-[(DIMETHYLAMINO)METHYL]-2-METHYLIMIDAZO[1,2-α]PYRIDINE DIHYDROCHLORIDE] | 8000 nM | 100 nM
